Results taken from the supplement of paper PMC10307832.

Legend:
Assay in all cases: relative viability (nuclei count vs DMSO), 5 days (fraction); higher = more cells survive
Pictilisib + Navitoclax = compound: CS(=O)(=O)N1CCN(Cc2cc3nc(-c4cccc5[nH]ncc45)nc(N4CCOCC4)c3s2)CC1 [Pictilisib] + CC1(C)CCC(c2ccc(Cl)cc2)=C(CN2CCN(c3ccc(C(=O)NS(=O)(=O)c4ccc(N[C@H](CCN5CCOCC5)CSc5ccccc5)c(S(=O)(=O)C(F)(F)F)c4)cc3)CC2)C1 [Navitoclax] (partner 0.5 µM)
Method in brief: (§1)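 Lung cancer cell lines, seeded in 1536-well plates, were treated the following day by pin tool with a single drug or with five library-drug doses (not always all listed) in √10 steps on top of a fixed anchor-drug dose. Cells were fixed and nuclei stained in one step after 5 days, and nuclei were counted. Relative viability is the nuclei count for treated wells divided by that for vehicle wells, reported as medians of duplicate plates.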

Pictilisib + Lapatinib = compound: CS(=O)(=O)N1CCN(Cc2cc3nc(-c4cccc5[nH]ncc45)nc(N4CCOCC4)c3s2)CC1 [Pictilisib] + CS(=O)(=O)CCNCc1ccc(-c2ccc3ncnc(Nc4ccc(OCc5cccc(F)c5)c(Cl)c4)c3c2)o1 [Lapatinib] (partner 2 µM)
Method in brief: as §1

Pictilisib + Linsitinib = compound: CS(=O)(=O)N1CCN(Cc2cc3nc(-c4cccc5[nH]ncc45)nc(N4CCOCC4)c3s2)CC1 [Pictilisib] + C[C@]1(O)C[C@@H](c2nc(-c3ccc4ccc(-c5ccccc5)nc4c3)c3c(N)nccn32)C1 [Linsitinib] (partner 1 µM)
Method in brief: as §1

MK-2206 + Palbociclib = compound: NC1(c2ccc(-c3nc4ccn5c(=O)[nH]nc5c4cc3-c3ccccc3)cc2)CCC1 [MK-2206] + CC(=O)c1c(C)c2cnc(Nc3ccc(N4CCNCC4)cn3)nc2n(C2CCCC2)c1=O [Palbociclib] (partner 0.5 µM)
Method in brief: as §1

MK-2206 + AZD7762 = compound: NC1(c2ccc(-c3nc4ccn5c(=O)[nH]nc5c4cc3-c3ccccc3)cc2)CCC1 [MK-2206] + NC(=O)Nc1cc(-c2cccc(F)c2)sc1C(=O)N[C@H]1CCCNC1 [AZD7762] (partner 0.2 µM)
Method in brief: as §1

Row | Cell Line | relative viability (Pictilisib + Navitoclax; first compound 0.02 µM) | relative viability (Pictilisib + Navitoclax; first compound 0.06325 µM) | relative viability (Pictilisib + Navitoclax; first compound 0.6325 µM) | relative viability (Pictilisib + Navitoclax; first compound 2 µM) | relative viability (Pictilisib + Lapatinib; first compound 0.02 µM) | relative viability (Pictilisib + Lapatinib; first compound 0.06325 µM) | relative viability (Pictilisib + Lapatinib; first compound 0.6325 µM) | relative viability (Pictilisib + Lapatinib; first compound 2 µM) | relative viability (Pictilisib + Linsitinib; first compound 0.02 µM) | relative viability (Pictilisib + Linsitinib; first compound 0.06325 µM) | relative viability (Pictilisib + Linsitinib; first compound 0.6325 µM) | relative viability (Pictilisib + Linsitinib; first compound 2 µM) | relative viability (MK-2206 + Palbociclib; first compound 0.01 µM) | relative viability (MK-2206 + Palbociclib; first compound 0.03162 µM) | relative viability (MK-2206 + Palbociclib; first compound 0.3162 µM) | relative viability (MK-2206 + Palbociclib; first compound 1 µM) | relative viability (MK-2206 + AZD7762; first compound 0.01 µM) | relative viability (MK-2206 + AZD7762; first compound 0.03162 µM) | relative viability (MK-2206 + AZD7762; first compound 0.3162 µM) | relative viability (MK-2206 + AZD7762; first compound 1 µM)
1 | HCC-78 | 0.809 | 0.594 | 0.45 | 0.231 | 0.685 | 0.749 | 0.594 | 0.181 | 0.508 | 0.413 | 0.318 | 0.226 | 0.426 | 0.489 | 0.496 | 0.398 | 0.66 | 0.608 | 0.624 | 0.538
2 | LXF-289 | 0.97 | 0.935 | 0.992 | 0.827 | 0.91 | 0.929 | 0.925 | 0.793 | 0.989 | 0.95 | 0.973 | 0.771 | 0.581 | 0.628 | 0.594 | 0.576 | 1.06 | 1.01 | 1.12 | 1.15
3 | 201T | 1.23 | 1.18 | 1.24 | 0.792 | 1.02 | 1.01 | 0.969 | 0.933 | 0.989 | 1.05 | 0.902 | 0.82 | 0.356 | 0.344 | 0.342 | 0.332 | 0.663 | 0.431 | 0.649 | 0.599
4 | NCI-H1734 | 0.797 | 0.874 | 0.554 | 0.264 | 1.1 | 1.11 | 0.653 | 0.41 | 0.901 | 0.797 | 0.615 | 0.332 | 0.238 | 0.369 | 0.28 | 0.264 | 0.576 | 0.244 | 0.471 | 0.399
5 | NCI-H2126 | 0.855 | 0.836 | 0.747 | 0.636 | 0.801 | 0.748 | 0.63 | 0.462 | 0.692 | 0.692 | 0.609 | 0.5 | 0.372 | 0.358 | 0.357 | 0.335 | 0.971 | 0.96 | 0.94 | 0.996
6 | LOU-NH91 | 0.822 | 0.735 | 0.573 | 0.408 | 0.787 | 0.733 | 0.621 | 0.525 | 1.02 | 0.918 | 0.798 | 0.557 | 0.531 | 0.46 | 0.507 | 0.547 | 0.8 | 0.751 | 0.705 | 0.605
7 | NCI-H1792 | 0.641 | 0.728 | 0.383 | 0.226 | 0.923 | 0.928 | 0.809 | 0.387 | 0.502 | 0.547 | 0.446 | 0.262 | 0.631 | 0.751 | 0.609 | 0.653 | 0.613 | 0.702 | 0.529 | 0.293
8 | NCI-H1651 | 1.02 | 0.926 | 0.9 | 0.53 | 0.919 | 0.721 | 0.568 | 0.424 | 0.922 | 0.953 | 0.817 | 0.616 | 0.506 | 0.536 | 0.486 | 0.482 | 0.506 | 0.367 | 0.466 | 0.438
9 | HCC-366 | 1.04 | 1.06 | 0.908 | 0.195 | 1.04 | 1 | 0.665 | 0.162 | 0.776 | 0.448 | 0.256 | 0.0873 | 0.392 | 0.38 | 0.225 | 0.244 | 0.26 | 0.204 | 0.244 | 0.18
10 | EKVX | 0.971 | 0.958 | 0.675 | 0.377 | 0.212 | 0.215 | 0.186 | 0.136 | 1.02 | 0.948 | 0.749 | 0.429 | 0.542 | 0.458 | 0.363 | 0.352 | 0.738 | 0.886 | 0.751 | 0.704
11 | NCI-H1993 | 0.943 | 0.845 | 0.664 | 0.637 | 0.878 | 0.895 | 0.783 | 0.705 | 0.774 | 0.71 | 0.636 | 0.655 | 0.638 | 0.74 | 0.545 | 0.471 | 0.804 | 0.864 | 0.483 | 0.475
12 | NCI-H23 | 0.852 | 0.899 | 0.665 | 0.372 | 1.17 | 1.45 | 0.952 | 0.496 | 0.632 | 0.641 | 0.605 | 0.423 | 0.555 | 0.5 | 0.427 | 0.459 | 0.333 | 0.192 | 0.188 | 0.229
13 | HCC-827 | 1.11 | 0.978 | 1.02 | 0.865 | 0.171 | 0.209 | 0.173 | 0.186 | 0.938 | 1.01 | 1.03 | 0.711 | 0.568 | 0.542 | 0.292 | 0.344 | 0.325 | 0.184 | 0.227 | 0.186
14 | PC-3 [JPC-3] | 0.758 | 0.749 | 0.803 | 0.496 | 0.439 | 0.461 | 0.426 | 0.319 | 0.985 | 0.945 | 0.97 | 0.893 | 0.5 | 0.509 | 0.535 | 0.519 | 0.881 | 0.849 | 0.774 | 0.334
15 | NCI-H1355 | 0.941 | 0.902 | 0.828 | 0.501 | 1.01 | 1 | 0.981 | 0.615 | 0.759 | 0.678 | 0.744 | 0.402 | 0.39 | 0.392 | 0.362 | 0.329 | 0.664 | 0.557 | 0.681 | 0.6
